Measured values published in publication PMC3639963, “A New Class of Small Molecule Inhibitor of BMP Signaling” (PLoS ONE, 2013).

Key:
Test in all cases: Nanosyn kinase profiling
Assay type in all cases: biochemical
Conditions in all cases: read-out: Percentage inhibition; for inhibition at 0.1 µM: 0.1 µM inhibitor; for inhibition at 1 µM: 1 µM inhibitor
MRCKα = target: T1, MRCKα (Homo sapiens, UniProt Q5VT25)
T1 construct: purchased Nanosyn (enzymatic panel); SGC in-house recombinant human kinases (DSF panel); Invitrogen (ALK1-6)
T1 sequence (Q5VT25 whole entry): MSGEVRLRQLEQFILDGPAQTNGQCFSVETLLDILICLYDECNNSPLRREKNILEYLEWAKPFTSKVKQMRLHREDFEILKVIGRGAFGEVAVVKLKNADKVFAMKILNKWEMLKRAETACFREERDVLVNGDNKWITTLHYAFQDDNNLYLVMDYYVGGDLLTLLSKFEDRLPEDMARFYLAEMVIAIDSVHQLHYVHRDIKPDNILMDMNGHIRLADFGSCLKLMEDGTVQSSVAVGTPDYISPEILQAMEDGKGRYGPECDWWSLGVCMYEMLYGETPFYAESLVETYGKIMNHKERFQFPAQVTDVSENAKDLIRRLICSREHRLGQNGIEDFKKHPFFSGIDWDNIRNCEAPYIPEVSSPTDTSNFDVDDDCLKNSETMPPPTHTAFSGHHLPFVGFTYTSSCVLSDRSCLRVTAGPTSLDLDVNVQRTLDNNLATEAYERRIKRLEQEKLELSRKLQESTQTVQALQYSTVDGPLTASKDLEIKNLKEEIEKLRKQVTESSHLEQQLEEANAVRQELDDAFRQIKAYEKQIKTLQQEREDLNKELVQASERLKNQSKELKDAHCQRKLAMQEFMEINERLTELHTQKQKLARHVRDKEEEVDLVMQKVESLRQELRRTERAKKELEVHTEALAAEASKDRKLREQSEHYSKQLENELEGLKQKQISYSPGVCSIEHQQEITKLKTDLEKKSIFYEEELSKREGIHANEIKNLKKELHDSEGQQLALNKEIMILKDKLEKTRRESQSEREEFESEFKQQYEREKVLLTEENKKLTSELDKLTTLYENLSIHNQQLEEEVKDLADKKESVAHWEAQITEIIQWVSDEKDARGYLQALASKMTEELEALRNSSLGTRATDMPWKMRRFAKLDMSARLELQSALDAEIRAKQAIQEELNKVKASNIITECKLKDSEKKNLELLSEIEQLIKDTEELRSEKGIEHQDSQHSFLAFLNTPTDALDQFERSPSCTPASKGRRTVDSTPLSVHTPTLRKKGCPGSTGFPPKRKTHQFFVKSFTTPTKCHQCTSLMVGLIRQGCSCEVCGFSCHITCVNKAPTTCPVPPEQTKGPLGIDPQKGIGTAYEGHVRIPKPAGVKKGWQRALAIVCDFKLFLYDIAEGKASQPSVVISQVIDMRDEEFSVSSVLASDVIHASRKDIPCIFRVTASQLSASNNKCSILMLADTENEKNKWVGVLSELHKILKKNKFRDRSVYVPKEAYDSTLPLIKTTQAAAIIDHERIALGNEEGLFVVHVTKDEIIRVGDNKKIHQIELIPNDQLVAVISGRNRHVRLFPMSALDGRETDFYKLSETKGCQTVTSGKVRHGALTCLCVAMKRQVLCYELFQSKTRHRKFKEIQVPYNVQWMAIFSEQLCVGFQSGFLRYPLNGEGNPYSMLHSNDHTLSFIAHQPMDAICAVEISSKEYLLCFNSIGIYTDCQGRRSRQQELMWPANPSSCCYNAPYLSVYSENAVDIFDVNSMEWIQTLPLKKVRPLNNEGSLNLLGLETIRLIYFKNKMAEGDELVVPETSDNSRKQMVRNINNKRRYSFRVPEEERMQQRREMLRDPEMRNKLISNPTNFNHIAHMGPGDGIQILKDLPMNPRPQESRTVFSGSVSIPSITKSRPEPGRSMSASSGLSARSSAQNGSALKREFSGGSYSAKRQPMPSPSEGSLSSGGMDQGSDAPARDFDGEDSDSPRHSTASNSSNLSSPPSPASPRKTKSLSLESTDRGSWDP
How it was run: (§1)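 Percent inhibition of each kinase was measured with the inhibitor at 0.1 µM and at 1 µM, as part of a 200-kinase human selectivity panel.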

AKT3 = target: T2, AKT3 (Homo sapiens, UniProt Q9Y243)
T2 construct: purchased Nanosyn (enzymatic panel); SGC in-house recombinant human kinases (DSF panel); Invitrogen (ALK1-6)
T2 sequence (Q9Y243 whole entry): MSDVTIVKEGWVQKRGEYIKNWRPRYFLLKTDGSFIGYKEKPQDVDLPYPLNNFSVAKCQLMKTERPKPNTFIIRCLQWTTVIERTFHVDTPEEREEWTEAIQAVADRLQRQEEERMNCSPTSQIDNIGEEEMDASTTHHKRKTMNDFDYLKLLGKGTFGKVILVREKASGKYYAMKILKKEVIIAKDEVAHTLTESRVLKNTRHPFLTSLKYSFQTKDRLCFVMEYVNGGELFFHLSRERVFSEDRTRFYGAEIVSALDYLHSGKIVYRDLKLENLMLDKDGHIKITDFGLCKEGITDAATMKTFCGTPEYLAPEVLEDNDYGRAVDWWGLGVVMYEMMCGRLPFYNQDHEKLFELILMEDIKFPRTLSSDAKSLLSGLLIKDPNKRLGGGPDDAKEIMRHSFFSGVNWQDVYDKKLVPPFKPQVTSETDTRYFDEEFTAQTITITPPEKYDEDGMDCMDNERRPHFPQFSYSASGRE
How it was run: as §1

ROCK1 = target: T3, ROCK1 (Homo sapiens, UniProt Q13464)
T3 construct: purchased Nanosyn (enzymatic panel); SGC in-house recombinant human kinases (DSF panel); Invitrogen (ALK1-6)
T3 sequence (Q13464 whole entry): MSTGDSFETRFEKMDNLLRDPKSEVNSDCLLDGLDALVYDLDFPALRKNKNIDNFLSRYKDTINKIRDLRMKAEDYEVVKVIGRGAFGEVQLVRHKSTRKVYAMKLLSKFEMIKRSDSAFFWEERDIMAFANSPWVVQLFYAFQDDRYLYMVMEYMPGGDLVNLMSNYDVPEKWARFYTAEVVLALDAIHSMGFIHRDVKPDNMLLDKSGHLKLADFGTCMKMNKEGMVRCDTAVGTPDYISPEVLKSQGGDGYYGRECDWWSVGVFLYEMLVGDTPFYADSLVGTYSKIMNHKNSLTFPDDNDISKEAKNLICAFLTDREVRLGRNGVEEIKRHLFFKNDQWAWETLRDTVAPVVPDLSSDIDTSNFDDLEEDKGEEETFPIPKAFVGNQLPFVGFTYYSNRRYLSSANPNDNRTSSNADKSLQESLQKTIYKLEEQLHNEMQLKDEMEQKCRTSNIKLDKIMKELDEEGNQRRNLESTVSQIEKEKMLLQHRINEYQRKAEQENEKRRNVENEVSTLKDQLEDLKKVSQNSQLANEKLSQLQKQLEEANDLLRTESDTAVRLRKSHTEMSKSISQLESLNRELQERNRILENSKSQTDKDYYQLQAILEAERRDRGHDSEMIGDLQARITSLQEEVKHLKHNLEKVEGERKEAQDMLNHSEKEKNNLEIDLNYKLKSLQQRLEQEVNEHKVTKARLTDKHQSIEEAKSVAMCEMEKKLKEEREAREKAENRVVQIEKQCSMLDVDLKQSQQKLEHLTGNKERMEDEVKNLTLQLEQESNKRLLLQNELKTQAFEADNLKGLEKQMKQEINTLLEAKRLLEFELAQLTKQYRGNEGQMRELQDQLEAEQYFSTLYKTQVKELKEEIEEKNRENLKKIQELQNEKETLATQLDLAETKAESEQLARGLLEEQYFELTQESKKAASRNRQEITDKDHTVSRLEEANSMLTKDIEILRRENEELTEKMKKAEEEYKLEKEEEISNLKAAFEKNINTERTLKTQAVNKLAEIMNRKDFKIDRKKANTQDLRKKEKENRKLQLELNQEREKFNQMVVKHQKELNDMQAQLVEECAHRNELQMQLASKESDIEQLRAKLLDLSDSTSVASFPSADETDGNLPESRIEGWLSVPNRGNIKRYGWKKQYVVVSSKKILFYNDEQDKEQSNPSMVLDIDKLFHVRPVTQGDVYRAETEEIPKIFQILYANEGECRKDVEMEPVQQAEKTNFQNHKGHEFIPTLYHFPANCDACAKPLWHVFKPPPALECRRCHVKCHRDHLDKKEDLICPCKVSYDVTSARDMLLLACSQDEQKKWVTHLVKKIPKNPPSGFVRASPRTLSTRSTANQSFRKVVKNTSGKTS
How it was run: as §1

EPHA3 = target: T4, EPHA3 (Homo sapiens, UniProt P29320)
T4 construct: purchased Nanosyn (enzymatic panel); SGC in-house recombinant human kinases (DSF panel); Invitrogen (ALK1-6)
T4 sequence (P29320 21-983): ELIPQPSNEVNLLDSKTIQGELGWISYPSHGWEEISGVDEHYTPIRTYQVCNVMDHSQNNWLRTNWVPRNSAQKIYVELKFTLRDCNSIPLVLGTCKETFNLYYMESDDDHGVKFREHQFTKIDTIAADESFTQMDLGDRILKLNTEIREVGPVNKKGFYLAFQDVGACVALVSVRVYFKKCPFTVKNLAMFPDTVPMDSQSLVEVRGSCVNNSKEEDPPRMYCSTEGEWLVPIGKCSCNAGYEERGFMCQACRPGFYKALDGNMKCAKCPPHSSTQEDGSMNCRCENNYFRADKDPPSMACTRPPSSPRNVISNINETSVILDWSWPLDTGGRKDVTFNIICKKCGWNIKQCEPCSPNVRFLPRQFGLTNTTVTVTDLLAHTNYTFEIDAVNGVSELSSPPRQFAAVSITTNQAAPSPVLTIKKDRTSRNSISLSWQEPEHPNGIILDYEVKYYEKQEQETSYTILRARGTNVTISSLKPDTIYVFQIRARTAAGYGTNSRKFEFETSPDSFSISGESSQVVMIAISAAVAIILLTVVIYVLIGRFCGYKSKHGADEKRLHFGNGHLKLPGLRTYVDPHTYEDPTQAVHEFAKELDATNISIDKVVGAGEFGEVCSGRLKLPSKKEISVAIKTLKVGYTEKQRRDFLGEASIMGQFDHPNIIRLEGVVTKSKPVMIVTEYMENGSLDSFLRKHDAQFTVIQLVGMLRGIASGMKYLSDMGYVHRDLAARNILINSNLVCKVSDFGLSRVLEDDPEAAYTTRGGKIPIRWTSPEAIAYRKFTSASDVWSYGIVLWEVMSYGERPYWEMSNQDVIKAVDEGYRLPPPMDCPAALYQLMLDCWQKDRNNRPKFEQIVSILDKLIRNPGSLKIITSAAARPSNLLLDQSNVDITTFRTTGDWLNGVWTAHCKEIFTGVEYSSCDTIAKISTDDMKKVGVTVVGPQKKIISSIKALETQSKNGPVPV
How it was run: as §1

PRKD2 = target: T5, PRKD2 (Homo sapiens, UniProt Q9BZL6)
T5 construct: purchased Nanosyn (enzymatic panel); SGC in-house recombinant human kinases (DSF panel); Invitrogen (ALK1-6)
T5 sequence (Q9BZL6 1-878): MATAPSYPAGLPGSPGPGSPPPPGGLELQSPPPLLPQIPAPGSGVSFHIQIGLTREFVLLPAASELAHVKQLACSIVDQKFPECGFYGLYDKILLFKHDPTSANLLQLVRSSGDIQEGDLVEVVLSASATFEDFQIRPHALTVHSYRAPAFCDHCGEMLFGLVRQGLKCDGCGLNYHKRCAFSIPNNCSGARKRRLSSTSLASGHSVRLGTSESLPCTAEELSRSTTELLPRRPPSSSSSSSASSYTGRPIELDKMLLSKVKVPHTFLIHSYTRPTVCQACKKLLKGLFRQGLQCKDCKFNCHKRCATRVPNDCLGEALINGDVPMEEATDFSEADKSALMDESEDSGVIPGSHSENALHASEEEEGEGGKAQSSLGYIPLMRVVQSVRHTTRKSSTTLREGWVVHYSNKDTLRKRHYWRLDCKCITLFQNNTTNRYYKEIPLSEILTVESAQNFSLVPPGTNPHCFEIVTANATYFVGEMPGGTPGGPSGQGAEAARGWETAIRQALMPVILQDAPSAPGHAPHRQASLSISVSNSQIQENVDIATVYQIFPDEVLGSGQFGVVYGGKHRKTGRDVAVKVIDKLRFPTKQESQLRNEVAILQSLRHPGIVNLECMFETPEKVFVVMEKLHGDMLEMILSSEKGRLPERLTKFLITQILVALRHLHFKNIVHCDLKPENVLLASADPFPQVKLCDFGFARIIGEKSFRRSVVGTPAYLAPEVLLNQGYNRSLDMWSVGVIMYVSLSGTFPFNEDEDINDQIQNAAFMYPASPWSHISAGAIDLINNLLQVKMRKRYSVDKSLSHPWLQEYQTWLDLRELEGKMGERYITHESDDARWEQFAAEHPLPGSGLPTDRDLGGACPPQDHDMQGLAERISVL
How it was run: as §1

CK1α = target: T6, CK1α (Homo sapiens, UniProt P48729)
T6 construct: purchased Nanosyn (enzymatic panel); SGC in-house recombinant human kinases (DSF panel); Invitrogen (ALK1-6)
T6 sequence (P48729 whole entry): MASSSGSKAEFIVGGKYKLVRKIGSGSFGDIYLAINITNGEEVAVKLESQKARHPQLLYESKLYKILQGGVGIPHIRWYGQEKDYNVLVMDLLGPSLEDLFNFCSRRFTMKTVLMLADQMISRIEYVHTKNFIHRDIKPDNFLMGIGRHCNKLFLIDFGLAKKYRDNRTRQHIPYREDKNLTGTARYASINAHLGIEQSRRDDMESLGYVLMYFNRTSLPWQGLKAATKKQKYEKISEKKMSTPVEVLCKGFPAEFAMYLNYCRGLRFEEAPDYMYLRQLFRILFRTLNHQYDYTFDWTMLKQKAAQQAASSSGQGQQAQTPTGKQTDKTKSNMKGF
How it was run: as §1

DYRK1A = target: T7, DYRK1A (Homo sapiens, UniProt Q13627)
T7 construct: purchased Nanosyn (enzymatic panel); SGC in-house recombinant human kinases (DSF panel); Invitrogen (ALK1-6)
How it was run: as §1

TRKA = target: T8, TRKA (Homo sapiens, UniProt P04629)
T8 construct: purchased Nanosyn (enzymatic panel); SGC in-house recombinant human kinases (DSF panel); Invitrogen (ALK1-6)
T8 sequence (P04629 33-796): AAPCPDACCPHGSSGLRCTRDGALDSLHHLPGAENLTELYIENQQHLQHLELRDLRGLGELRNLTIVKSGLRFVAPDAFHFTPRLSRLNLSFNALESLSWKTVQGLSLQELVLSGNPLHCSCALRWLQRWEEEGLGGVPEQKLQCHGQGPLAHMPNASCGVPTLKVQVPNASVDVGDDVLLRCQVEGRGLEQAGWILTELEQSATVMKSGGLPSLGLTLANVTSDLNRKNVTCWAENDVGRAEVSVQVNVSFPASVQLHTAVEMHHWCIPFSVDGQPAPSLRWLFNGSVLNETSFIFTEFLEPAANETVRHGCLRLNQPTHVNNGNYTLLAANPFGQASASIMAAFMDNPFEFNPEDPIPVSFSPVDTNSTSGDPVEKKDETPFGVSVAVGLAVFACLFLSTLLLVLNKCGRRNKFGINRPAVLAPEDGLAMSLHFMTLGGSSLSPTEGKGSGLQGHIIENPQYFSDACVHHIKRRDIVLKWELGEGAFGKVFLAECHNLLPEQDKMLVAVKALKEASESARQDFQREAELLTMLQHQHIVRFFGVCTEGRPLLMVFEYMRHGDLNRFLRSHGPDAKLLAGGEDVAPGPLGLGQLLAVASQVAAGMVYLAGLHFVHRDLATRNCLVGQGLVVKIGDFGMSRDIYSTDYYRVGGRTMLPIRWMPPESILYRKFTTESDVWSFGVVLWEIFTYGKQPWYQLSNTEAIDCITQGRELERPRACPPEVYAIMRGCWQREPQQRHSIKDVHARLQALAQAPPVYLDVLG
How it was run: as §1

Work on `COc1cc(-c2cc(-c3cccc(O)c3)cnc2N)cc(OC)c1OC` [K02288, 3-[6-amino-5-(3,4,5-trimethoxy-phenyl)-pyridin-3-yl]-phenol] yielded an inhibition at 0.1 µM (MRCKα) of 2%, an inhibition at 1 µM (MRCKα) of 6.9% and an inhibition at 0.1 µM (AKT3) of -2%. The inhibition at 1 µM (AKT3) was 1.2%, the inhibition at 0.1 µM (ROCK1) was 0.5% and the inhibition at 1 µM (ROCK1) was 3.1%. It also gave an inhibition at 0.1 µM (EPHA3) of -6%, an inhibition at 1 µM (EPHA3) of 4.3% and an inhibition at 0.1 µM (PRKD2) of 0.6%. For the same molecule, the inhibition at 1 µM (PRKD2) was 6.6%, the inhibition at 0.1 µM (CK1α) was 0% and the inhibition at 1 µM (CK1α) was 7.2%. It also gave an inhibition at 0.1 µM (DYRK1A) of 1.9%, an inhibition at 1 µM (DYRK1A) of 4.1% and an inhibition at 0.1 µM (TRKA) of 1.5%. For the same molecule, the inhibition at 1 µM (TRKA) was 2.8%.

`c1ccc2c(-c3cnn4cc(-c5ccc(N6CCNCC6)cc5)cnc34)ccnc2c1` [LDN-193189] gave an inhibition at 0.1 µM (MRCKα) of 0.8%, an inhibition at 1 µM (MRCKα) of 6.8% and an inhibition at 0.1 µM (AKT3) of 0.2%. It also gave an inhibition at 1 µM (AKT3) of 1.5%, an inhibition at 0.1 µM (ROCK1) of 0% and an inhibition at 1 µM (ROCK1) of 0.7%. For the same molecule, the inhibition at 0.1 µM (EPHA3) was 2.2%, the inhibition at 1 µM (EPHA3) was 6.3% and the inhibition at 0.1 µM (PRKD2) was 4.5%. The inhibition at 1 µM (PRKD2) was 13%, the inhibition at 0.1 µM (CK1α) was 14% and the inhibition at 1 µM (CK1α) was 56%. It also gave an inhibition at 0.1 µM (DYRK1A) of 10%, an inhibition at 1 µM (DYRK1A) of 53% and an inhibition at 0.1 µM (TRKA) of 1.9%. It also gave an inhibition at 1 µM (TRKA) of 7.2%.
